Assay results: PubChem BioAssay AID1259411 (Chemical Carcinogenesis Research Information System (CCRIS), 2018)
Calls of active or inactive are those of the source. How the calls were made is not given here.

System: rodent carcinogenicity bioassays, tumor incidence
Experiment: CCRIS carcinogenicity studies
Method in brief: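 NCI-built, expert-reviewed records of carcinogenicity and related test outcomes (mutagenicity, tumor promotion/inhibition) compiled from published and report sources, historical span 1985-2011, not updated.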

Measured: carcinogen call

CCOC(N)=O
active: Species: HAMSTER, Route: DERMAL, Tumor Site: Type of Lesion: INTEGUMENTARY SYSTEM (SKIN), MAMMARY GLAND active; positive | Species: HAMSTER, Route: INTRAPERITONEAL, Tumor Site: Type of Lesion: INTEGUMENTARY SYSTEM (SKIN) active; positive | Species: HAMSTER, Route: ORAL, Tumor Site: Type of Lesion: FORESTOMACH, INTEGUMENTARY SYSTEM (SKIN) active; positive | Species: HAMSTER, Route: SUBCUTANEOUS, Tumor Site: Type of Lesion: ADRENAL GLAND, FORESTOMACH, INTESTINES, INTEGUMENTARY SYSTEM (SKIN), Tumor Site: Type of Lesion: ADRENAL GLAND, FORESTOMACH, INTESTINES, INTEGUMENTARY SYSTEM (SKIN) active; positive | Species: MOUSE, Route: INHALATION, Tumor Site: Type of Lesion: LUNG active; positive | Species: MOUSE, Route: INTRAPERITONEAL, Tumor Site: Type of Lesion: HEMATOPOIETIC SYSTEM (LEUKEMIA), LYMPHATIC SYSTEM: LYMPHOMA, LUNG, LIVER, HARDERIAN GLAND, OVARIES, Tumor Site: Type of Lesion: HEMATOPOIETIC SYSTEM (LEUKEMIA), LYMPHATIC SYSTEM: LYMPHOMA, LUNG, LIVER, HARDERIAN GLAND, OVARIES active; positive | Species: MOUSE, Route: INTRAPERITONEAL, Tumor Site: Type of Lesion: LUNG, LIVER active; positive | Species: MOUSE, Route: ORAL, Tumor Site: Type of Lesion: HEMATOPOIETIC SYSTEM (LEUKEMIA): LYMPHOCYTIC LEUKEMIA, LYMPHATIC SYSTEM: LYMPHOSARCOMA, MAMMARY GLAND, LUNG, LIVER, THYM, Tumor Site: Type of Lesion: HEMATOPOIETIC SYSTEM (LEUKEMIA): LYMPHOCYTIC LEUKEMIA, LYMPHATIC SYSTEM: LYMPHOSARCOMA, MAMMARY GLAND, LUNG, LIVER, THYM active; positive | Species: MOUSE, Route: SUBCUTANEOUS, Tumor Site: Type of Lesion: HARDERIAN GLAND, HEMATOPOIETIC SYSTEM (LEUKEMIA), LIVER, LUNG, Tumor Site: Type of Lesion: HARDERIAN GLAND, HEMATOPOIETIC SYSTEM (LEUKEMIA), LIVER, LUNG active; positive | Species: MOUSE, Strain/Sex: B6C3F1/FEMALE (48/GROUP), Route: ORAL, Dose: 10, 30, 90 PPM IN DRINKING WATER (STUDY DURATION: 2 YRS), Dose: 10, 30, 90 PPM IN DRINKING WATER (STUDY DURATION: 2 YRS), Tumor Site: Type of Lesion: MAMMARY GLAND: ADENOACANTHOMA, ADENOCARCINOMA, OVARY: GRANULOSA CELL TUMOR (BENIGN OR MALIGNANT), SPLEEN: HEMANGIOSARCOM, Tumor Site: Type of Lesion: MAMMARY GLAND: ADENOACANTHOMA, ADENOCARCINOMA, OVARY: GRANULOSA CELL TUMOR (BENIGN OR MALIGNANT), SPLEEN: HEMANGIOSARCOM active; positive ; marginal but not significant increases of hemangiosarcomas occurred i | Species: MOUSE, Strain/Sex: B6C3F1/MALE (48/GROUP), Route: ORAL, Dose: 10, 30, 90 PPM IN DRINKING WATER (STUDY DURATION: 2 YRS), Dose: 10, 30, 90 PPM IN DRINKING WATER (STUDY DURATION: 2 YRS), Tumor Site: Type of Lesion: HEART: HEMANGIOSARCOMA, FORESTOMACH: SQUAMOUS CELL PAPILLOMA OR CARCINOMA (COMBINED), SKIN: SQUAMOUS CELL PAPILLOMA OR C, Tumor Site: Type of Lesion: HEART: HEMANGIOSARCOMA, FORESTOMACH: SQUAMOUS CELL PAPILLOMA OR CARCINOMA (COMBINED), SKIN: SQUAMOUS CELL PAPILLOMA OR C active; positive | Species: MOUSE, Strain/Sex: B6C3F1/MALE, FEMALE (48/GROUP), Route: ORAL, Dose: 10, 30, 90 PPM IN DRINKING WATER (STUDY DURATION: 2 YRS), Dose: 10, 30, 90 PPM IN DRINKING WATER (STUDY DURATION: 2 YRS), Tumor Site: Type of Lesion: LIVER: HEMANGIOSARCOMA, HEPATOCELLULAR ADENOMA OR CARCINOMA (COMBINED), LUNG: ADENOMA OR CARCINOMA (COMBINED): HARDERIAN active; positive | Species: MOUSE, Strain/Sex: B6C3F1/MALE, Route: INTRAPERITONEAL, Dose: 0, 125 UG/G BW IN 10 µL TRIOCTANOIN ONCE (STUDY DURATION: 9 MO), Tumor Site: Type of Lesion: LIVER: HEPATOMA active; positive | Species: MOUSE, Strain/Sex: B6C3F1/MALE, Route: ORAL, Dose: 0, 0.6, 3, 6, 60, 600 PPM IN DRINKING WATER FOR 70 WK (STUDY DURATION: 70 WK), Dose: 0, 0.6, 3, 6, 60, 600 PPM IN DRINKING WATER FOR 70 WK (STUDY DURATION: 70 WK), Tumor Site: Type of Lesion: LUNG: ALVEOLAR/BRONCHIOLAR CARCINOMA, ALVEOLAR/BRONCHIOLAR ADENOMA, LIVER: ANGIOSARCOMA, HEMANGIOMA active; positive | Species: MOUSE, Strain/Sex: C57BL, Route: INTRAPERITONEAL, Dose: 1.00 MG/G 10 TIMES AT WEEKLY INTERVALS, Tumor Site: Type of Lesion: THYMUS GLAND: LYMPHOSARCOMA, LUNG: ADENOMA active; positive | Species: MOUSE, Strain/Sex: CTM/MALE,FEMALE, Route: ORAL, Dose: 0, 0.4% IN DRINKING WATER, 1 OR 2 10-D TREATMENTS OR 1, 2 OR 3 5-D TREATMENTS WITH 10-D INTERVALS BETWEEN TREATMENTS, Dose: 0, 0.4% IN DRINKING WATER, 1 OR 2 10-D TREATMENTS OR 1, 2 OR 3 5-D TREATMENTS WITH 10-D INTERVALS BETWEEN TREATMENTS, Tumor Site: Type of Lesion: LUNG: ADENOMA, LYMPHOSARCOMA active; positive | Species: MOUSE, Strain/Sex: HR/HR/MALE, FEMALE, Route: DERMAL, Dose: 0, 10, 20, 40% IN 200 µL ACETONE 2/WK FOR STUDY DURATION (STUDY DURATION: 56-60 WK), Dose: 0, 10, 20, 40% IN 200 µL ACETONE 2/WK FOR STUDY DURATION (STUDY DURATION: 56-60 WK), Tumor Site: Type of Lesion: SKIN: CARCINOMA, PAPILLOMA, LUNG: ADENOMA active; positive | Species: MOUSE, Strain/Sex: HR/HR/MALE, FEMALE, Route: DERMAL, Dose: 0, 15, 30, 75% IN PROPYLENE GLYCOL 2/WK FOR STUDY DURATION (STUDY DURATION: 56-60 WK), Dose: 0, 15, 30, 75% IN PROPYLENE GLYCOL 2/WK FOR STUDY DURATION (STUDY DURATION: 56-60 WK), Tumor Site: Type of Lesion: SKIN: CARCINOMA, PAPILLOMA, LUNG: ADENOMA active; positive | Species: MOUSE, Strain/Sex: ICR/FEMALE, Route: INHALATION, Dose: 0, 0.25 UG/ML AIR FOR 0.25 D (TOTAL DOSE 0.25 UG/ML/D) (STUDY DURATION: 5 MO), Tumor Site: Type of Lesion: LUNG: TUMOR, HEMATOPOIETIC SYSTEM: LEUKEMIA active; positive | Species: MOUSE, Strain/Sex: ICR/FEMALE, Route: INHALATION, Dose: 0, 0.25 UG/ML AIR FOR 3 D (TOTAL DOSE 0.75 UG/ML/D) (STUDY DURATION: 5 MO), Tumor Site: Type of Lesion: LUNG: TUMOR, HEMATOPOIETIC SYSTEM: LEUKEMIA active; positive
